Test results: PubChem BioAssay AID2060612 (Molecular Pharmacology Branch, DTP, NCI, 2025)

Tested on: 565232-114-T-J1-PDC complex spheroid viability
Experiment: Anticancer human tumor 565232-114-T-J1-PDC patient-derived bladder carcinoma cell line growth inhibition [CLK]
Details: for IC50: curve of first compound; for viability, T/C: stronger effect = lower value
Method in brief: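 Patient-derived tumor cells grown as complex spheroids with HUVEC endothelial cells and mesenchymal stem cells, treated with drug combinations. Concentrations descend in half-log steps from near clinical Cmax, or from 10 microM if Cmax unknown.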

[1] = second compound 0.0316 µM, first compound 0.0316 µM
[2] = second compound 0.0316 µM, first compound 0.1 µM
[3] = second compound 0.0316 µM, first compound 0.316 µM
[4] = second compound 0.0316 µM, first compound 1 µM
[5] = second compound 0.0316 µM, first compound 3.16 µM
[6] = second compound 0.0316 µM, first compound 10 µM
[7] = second compound 0.1 µM, first compound 0.0316 µM
[8] = second compound 0.1 µM, first compound 0.1 µM
[9] = second compound 0.1 µM, first compound 0.316 µM
[10] = second compound 0.1 µM, first compound 1 µM
[11] = second compound 0.1 µM, first compound 3.16 µM
[12] = second compound 0.1 µM, first compound 10 µM
[13] = second compound 0.316 µM, first compound 0.0316 µM
[14] = second compound 0.316 µM, first compound 0.1 µM
[15] = second compound 0.316 µM, first compound 0.316 µM
[16] = second compound 0.316 µM, first compound 1 µM
[17] = second compound 0.316 µM, first compound 3.16 µM
[18] = second compound 0.316 µM, first compound 10 µM
[19] = second compound 1 µM, first compound 0.0316 µM
[20] = second compound 1 µM, first compound 0.1 µM
[21] = second compound 1 µM, first compound 0.316 µM
[22] = second compound 1 µM, first compound 1 µM
[23] = second compound 1 µM, first compound 3.16 µM
[24] = second compound 1 µM, first compound 10 µM
[25] = second compound 3.16 µM, first compound 0.0316 µM
[26] = second compound 3.16 µM, first compound 0.1 µM
[27] = second compound 3.16 µM, first compound 0.316 µM
[28] = second compound 3.16 µM, first compound 1 µM
[29] = second compound 3.16 µM, first compound 3.16 µM
[30] = second compound 3.16 µM, first compound 10 µM
[31] = second compound 10 µM, first compound 0.0316 µM
[32] = second compound 10 µM, first compound 0.1 µM
[33] = second compound 10 µM, first compound 0.316 µM
[34] = second compound 10 µM, first compound 1 µM
[35] = second compound 10 µM, first compound 3.16 µM
[36] = second compound 10 µM, first compound 10 µM
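Further: spheroids exposed to compounds for 7 days before readout.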
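Wherever viability, T/C is given: 100% = DMSO vehicle wells with luminescence normalized to vehicle control.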

Q: What does the source list for `CC(C)CC(NC(=O)C(Cc1ccccc1)NC(=O)c1cnccn1)B(O)O` (stereo unspecified) + CNC(=O)c1ccc(Nc2nc(OC3CCCC3)c3c(-c4ccc5nc(C)oc5c4)c[nH]c3n2)c(OC)c1?
A: IC50 (second compound 0.0316 µM): 0.00466 µM; IC50 (second compound 0.1 µM): 0.00101 µM; IC50 (second compound 0.316 µM): < 0.000949 µM; IC50 (second compound 1 µM): < 0.000949 µM; IC50 (second compound 3.16 µM): < 0.000949 µM; IC50 (second compound 10 µM): < 0.000949 µM; viability, T/C (second compound 0.0316 µM, first compound 0.000949 µM): 81%; viability, T/C (second compound 0.0316 µM, first compound 0.003 µM): 80.1%; viability, T/C (second compound 0.0316 µM, first compound 0.00949 µM): 1.47%; viability, T/C (second compound 0.0316 µM, first compound 0.03 µM): 0.95%; viability, T/C (second compound 0.0316 µM, first compound 0.0949 µM): 0.67%; viability, T/C (second compound 0.0316 µM, first compound 0.3 µM): 1.42%; viability, T/C (second compound 0.1 µM, first compound 0.000949 µM): 50.7%; viability, T/C (second compound 0.1 µM, first compound 0.003 µM): 42.4%; viability, T/C (second compound 0.1 µM, first compound 0.00949 µM): 1.02%; viability, T/C (second compound 0.1 µM, first compound 0.03 µM): 0.74%; viability, T/C (second compound 0.1 µM, first compound 0.0949 µM): 0.79%; viability, T/C (second compound 0.1 µM, first compound 0.3 µM): 0.53%; viability, T/C (second compound 0.316 µM, first compound 0.000949 µM): 31.1%; viability, T/C (second compound 0.316 µM, first compound 0.003 µM): 24.6%; viability, T/C (second compound 0.316 µM, first compound 0.00949 µM): 0.97%; viability, T/C (second compound 0.316 µM, first compound 0.03 µM): 0.75%; viability, T/C (second compound 0.316 µM, first compound 0.0949 µM): 3.5%; viability, T/C (second compound 0.316 µM, first compound 0.3 µM): 0.65%; viability, T/C (second compound 1 µM, first compound 0.000949 µM): 22.1%; viability, T/C (second compound 1 µM, first compound 0.003 µM): 23.1%; viability, T/C (second compound 1 µM, first compound 0.00949 µM): 0.93%; viability, T/C (second compound 1 µM, first compound 0.03 µM): 0.66%; viability, T/C (second compound 1 µM, first compound 0.0949 µM): 0.67%; viability, T/C (second compound 1 µM, first compound 0.3 µM): 1.42%; viability, T/C (second compound 3.16 µM, first compound 0.000949 µM): 19.6%; viability, T/C (second compound 3.16 µM, first compound 0.003 µM): 12.3%; viability, T/C (second compound 3.16 µM, first compound 0.00949 µM): 0.72%; viability, T/C (second compound 3.16 µM, first compound 0.03 µM): 1.66%; viability, T/C (second compound 3.16 µM, first compound 0.0949 µM): 0.65%; viability, T/C (second compound 3.16 µM, first compound 0.3 µM): 1.37%; viability, T/C (second compound 10 µM, first compound 0.000949 µM): 19.5%; viability, T/C (second compound 10 µM, first compound 0.003 µM): 10.6%; viability, T/C (second compound 10 µM, first compound 0.00949 µM): 1.82%; viability, T/C (second compound 10 µM, first compound 0.03 µM): 0.61%; viability, T/C (second compound 10 µM, first compound 0.0949 µM): 0.51%; viability, T/C (second compound 10 µM, first compound 0.3 µM): 1.99%

Q: With `CC1COCCN1c1cc(C2(S(C)(=N)=O)CC2)nc(-c2ccnc3[nH]ccc23)n1` (stereo unspecified) + CNC(=O)c1ccc(Nc2nc(OC3CCCC3)c3c(-c4ccc5nc(C)oc5c4)c[nH]c3n2)c(OC)c1 as the molecule, how does the IC50 (second compound 0.0316 µM) read?
A: Its IC50 is 6.35 µM.

Q: And the IC50 (second compound 0.1 µM)?
A: Its IC50 is 0.222 µM.

Q: And the IC50 (second compound 0.316 µM)?
A: The IC50 was under 0.0316 µM.

Q: And the IC50 (second compound 1 µM)?
A: The IC50 was under 0.0316 µM.

Q: And the IC50 (second compound 3.16 µM)?
A: Its IC50 is under 0.0316 µM.

Q: And the IC50 (second compound 10 µM)?
A: Its IC50 is under 0.0316 µM.

Q: What about the viability, T/C [1] of the same molecule?
A: Its viability, T/C is 95.2%.

Q: What about the viability, T/C [2] of the same molecule?
A: Its viability, T/C is 85.1%.

Q: And the viability, T/C [3]?
A: Its viability, T/C is 93.2%.

Q: And the viability, T/C [4]?
A: Its viability, T/C is 79.4%.

Q: And the viability, T/C [5]?
A: The viability, T/C was 103%.

Q: What about the viability, T/C [6] of the same molecule?
A: The viability, T/C was 23.2%.

Q: What about the viability, T/C [7] of the same molecule?
A: Its viability, T/C is 55.6%.

Q: What about the viability, T/C [8] of the same molecule?
A: Its viability, T/C is 57%.

Q: What about the viability, T/C [9] of the same molecule?
A: The viability, T/C was 42%.

Q: What about the viability, T/C [10] of the same molecule?
A: Its viability, T/C is 44.2%.

Q: And the viability, T/C [11]?
A: Its viability, T/C is 30.2%.

Q: And the viability, T/C [12]?
A: Its viability, T/C is 11.5%.

Q: What about the viability, T/C [13] of the same molecule?
A: Its viability, T/C is 31.4%.

Q: What about the viability, T/C [14] of the same molecule?
A: Its viability, T/C is 38.3%.

Q: What about the viability, T/C [15] of the same molecule?
A: The viability, T/C was 35.7%.

Q: What about the viability, T/C [16] of the same molecule?
A: The viability, T/C was 28.6%.

Q: And the viability, T/C [17]?
A: Its viability, T/C is 22%.

Q: And the viability, T/C [18]?
A: The viability, T/C was 9.67%.

Q: What about the viability, T/C [19] of the same molecule?
A: Its viability, T/C is 24.7%.

Q: And the viability, T/C [20]?
A: The viability, T/C was 25.2%.

Q: What about the viability, T/C [21] of the same molecule?
A: The viability, T/C was 25.9%.

Q: And the viability, T/C [22]?
A: Its viability, T/C is 23.8%.

Q: What about the viability, T/C [23] of the same molecule?
A: The viability, T/C was 11.1%.

Q: And the viability, T/C [24]?
A: The viability, T/C was 4.92%.

Q: And the viability, T/C [25]?
A: The viability, T/C was 19.1%.

Q: And the viability, T/C [26]?
A: The viability, T/C was 17.4%.

Q: What about the viability, T/C [27] of the same molecule?
A: The viability, T/C was 17.4%.

Q: And the viability, T/C [28]?
A: The viability, T/C was 13.3%.

Q: What about the viability, T/C [29] of the same molecule?
A: The viability, T/C was 11.2%.

Q: And the viability, T/C [30]?
A: Its viability, T/C is 2.86%.

Q: And the viability, T/C [31]?
A: The viability, T/C was 19%.

Q: What about the viability, T/C [32] of the same molecule?
A: The viability, T/C was 21.1%.

Q: What about the viability, T/C [33] of the same molecule?
A: The viability, T/C was 20.5%.

Q: What about the viability, T/C [34] of the same molecule?
A: Its viability, T/C is 15.5%.

Q: And the viability, T/C [35]?
A: The viability, T/C was 6.6%.

Q: What about the viability, T/C [36] of the same molecule?
A: Its viability, T/C is 1.53%.

Q: Which results are given for `O=C(c1cc(Cc2n[nH]c(=O)c3ccccc23)ccc1F)N1CCN(C(=O)C2CC2)CC1` + CNC(=O)c1ccc(Nc2nc(OC3CCCC3)c3c(-c4ccc5nc(C)oc5c4)c[nH]c3n2)c(OC)c1?
A: IC50 (second compound 0.0316 µM): > 10 µM; IC50 (second compound 0.1 µM): 1.5 µM; IC50 (second compound 0.316 µM): < 0.0316 µM; IC50 (second compound 1 µM): < 0.0316 µM; IC50 (second compound 3.16 µM): < 0.0316 µM; IC50 (second compound 10 µM): < 0.0316 µM; viability, T/C [1]: 81.7%; viability, T/C [2]: 85.9%; viability, T/C [3]: 87.8%; viability, T/C [4]: 82.8%; viability, T/C [5]: 104%; viability, T/C [6]: 64.8%; viability, T/C [7]: 49%; viability, T/C [8]: 52.6%; viability, T/C [9]: 63.5%; viability, T/C [10]: 48.8%; viability, T/C [11]: 45.7%; viability, T/C [12]: 34%; viability, T/C [13]: 36.4%; viability, T/C [14]: 40.3%; viability, T/C [15]: 30.4%; viability, T/C [16]: 32.4%; viability, T/C [17]: 33.4%; viability, T/C [18]: 30.2%; viability, T/C [19]: 24%; viability, T/C [20]: 26.8%; viability, T/C [21]: 23.2%; viability, T/C [22]: 22.8%; viability, T/C [23]: 27.1%; viability, T/C [24]: 24.8%; viability, T/C [25]: 22.5%; viability, T/C [26]: 23.4%; viability, T/C [27]: 21.3%; viability, T/C [28]: 21.7%; viability, T/C [29]: 22.4%; viability, T/C [30]: 19.3%; viability, T/C [31]: 23.2%; viability, T/C [32]: 25.5%; viability, T/C [33]: 16.5%; viability, T/C [34]: 22.3%; viability, T/C [35]: 21%; viability, T/C [36]: 18.2%
